Data reported in US20260176289A1, “SMALL MOLECULE INHIBITORS OF KRAS PROTEINS” (Merck Sharp & Dohme LLC, priority 2022, published 2026).

Columns and labels:
[1] = biological target: KRAS-G12D (Homo sapiens, UniProt P01116, G12D); experiment: SOS-catalyzed nucleotide exchange assay (Procedure A, TR-FRET), KRAS-G12D; format: biochemical; conditions: nucleotide exchange, read-out: KRAS G12D GNE IC50
Procedure, shortened: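 Signal ratio (520/495 nm, excitation 340 nm) reports Bodipy-GDP retention on biotinylated RAS after SOS-catalyzed exchange with 3 mM GTP. SOS was 40 nM, except 160 nM for G12V. Room-temperature exchange lasted 60 min (90 min for G12V), following a 60 min compound preincubation.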

[2] = biological target: KRAS-G12C (C51S/C80L/C118S) (Homo sapiens, UniProt P01116, C118S/C51S/C80L/G12C); experiment: SOS-catalyzed nucleotide exchange assay (Procedure A, TR-FRET), KRAS-G12C; format: biochemical; conditions: nucleotide exchange, Procedure A; read-out: KRAS G12C GNE IC50
Procedure, shortened: (§1)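 RAS (G12C carries C51S/C80L/C118S) loaded with Bodipy-GDP, complexed with Tb-streptavidin; cpd 60 min RT; + SOS/3 mM GTP. G12C 3/40 nM, WT 1/40, NRAS 1.25/40 nM RAS/SOS, 60 min; G12V 1.25/160 nM, 90 min. Normalized to DMSO and saturating inhibitor; 4PL fit.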

[3] = biological target: KRAS-WT (Homo sapiens, UniProt P01116); experiment: SOS-catalyzed nucleotide exchange assay (Procedure A, TR-FRET), KRAS-WT; format: biochemical; conditions: nucleotide exchange, read-out: KRAS WT GNE IC50
Procedure, shortened: as §1

[4] = biological target: KRAS-G13D (Homo sapiens, UniProt P01116, G13D); experiment: SOS-catalyzed nucleotide exchange assay (Procedure A, TR-FRET), KRAS-G13D; format: biochemical; conditions: nucleotide exchange, Procedure A; read-out: KRAS G13D GNE IC50
[5] = test system: PANC08.13 cells; experiment: Cellular phospho-ERK assay, PANC08.13 cells (homozygous KRAS-G12D); format: cell-based; conditions: Homo sapiens, PANC-08-13, KRAS-G12D, 2 hours, read-out: PANC-08.13 pERK IC50
Description: Procedure for Cellular Phospho-ERK Assay in KRAS Wild Type and Mutant (G12D, G12V) Cell Lines
MKN-1 cells (JCRB JCRB0252) containing amplified wild-type KRAS, were cultured in growth medium that contains RPMI 1640-GlutaMAX™-I (ThermoFisher Scientific 61870) containing 10% heat inactivated fetal bovine serum (ThermoFisher Scientific 10091148), 1 mM sodium pyruvate and 10 mM HEPES. PANC08.13 cells (ATCC® CRL-2551™), containing homozygous KRAS-G12D activating mutation, were cultured in growth medium made of RPMI1640-GlutaMAX™-I (ThermoFisher Scientific 61870) containing 15% heat inactivated fetal bovine serum (ThermoFisher Scientific 10091148)). AsPC-1 cells (ATCC® CRL-1682™), containing homozygous KRAS-G12D activating mutation, were cultured in T150 flask in growth medium (RPMI medium 1640-GlutaMAX™-I (ThermoFisher Scientific 61870) containing 10% fetal bovine serum (ThermoFisher Scientific 10091148)). SW620 cells (ATCC® […]), containing homozygous KRAS-G12V activating mutation, were cultured in growth medium that contains RPMI 1640-GlutaMAX™-I (ThermoFisher Scientific 61870) containing 10% heat inactivated fetal bovine serum (ThermoFisher Scientific 10091148).
Cells for the assay were harvested in growth medium after TrypLE (ThermoFisher scientific 12604021) digestion and were seeded in a 384-well collagen coated cell culture plate (Corning 356702) at a density of 10,000-15,000 cells/20 μL/well, and incubated at 37° C., 5% CO2 overnight. The compound (with 10 mM stock concentration) dose-response titrations were prepared [30 μM final ERK detection assay concentration and 1:3 dilutions, 10-point dose response] and appropriate amounts (270 nL) of test compounds were dispensed in a 384-well intermediate plate using an Echo 550 liquid handler. 30 μL/well of RPMI medium 1640-GlutaMAX™—I was added to the intermediate plate and the contents of the intermediate plate (10 μL/well) were then transferred to the 384-well collagen coated cell culture plate, which was incubated at 37° C., 5% CO2 for 2 hours. After removal of medium from the collagen coated cell culture plate, cells were lysed in lysis buffer from Alpha SureFire® Ultra™ Multiplex p-ERK and total ERK assay kit (PerkinElmer MPSU-PTERK) containing Halt™ Protease and Phosphatase inhibitor cocktail (ThermoFisher Scientific 78446) at room temperature with constant shaking at 300 rpm for 30 minutes. The cell lysates were then transferred to an OptiPlate-384 plate (PerkinElmer 6005620), and the phosphorylation of ERK (p-ERK) and total ERK levels were detected by Alpha SureFire® Ultra™ Multiplex p-EEK kit and total ERK assay kit (PerkinElmer MPSU-PTERK) following the manufacturer's protocol. Assay plates were read on a En Vision Multimode Plate Reader (PerkinElmer), and the ratio of p-ERK vs. total ERK in each well was used as the final readout. Dose response curves were analyzed using a 4-parameter logistic model to calculate IC50 values using Spotfire software.

[6] = biological target: KRAS-G12V (Homo sapiens, UniProt P01116, G12V); experiment: SOS-catalyzed nucleotide exchange assay (Procedure A, TR-FRET), KRAS-G12V; format: biochemical; conditions: nucleotide exchange, read-out: KRAS G12V GNE IC50
Procedure, shortened: as §1

[7] = test system: AsPC-1 cells; experiment: Cellular phospho-ERK assay, AsPC-1 cells (homozygous KRAS-G12D); format: cell-based; conditions: Homo sapiens, ASPC1, 2 h, KRAS-G12D, 2 hours, read-out: AsPC1 pERK IC50
Procedure, shortened: (§2)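 Overnight-plated cells on collagen received test compound (up to 30 μM final, threefold steps, ten concentrations) for two hours. After lysis at room temperature, phosphorylated and total ERK were quantified together by Alpha SureFire, and IC50 is based on the phospho-to-total signal ratio.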

[8] = test system: SW620 cells; experiment: Cellular phospho-ERK assay, SW620 cells (homozygous KRAS-G12V); format: cell-based; conditions: Homo sapiens, SW-620, KRAS-G12V, 2 hours, read-out: SW620 pERK IC50
Procedure, shortened: as §2

[9] = test system: MKN-1 cells; experiment: Cellular phospho-ERK assay, MKN-1 cells (amplified wild-type KRAS); format: cell-based; conditions: Homo sapiens, amplified wild-type KRAS, 2 hours, read-out: MKN1 pERK IC50
Procedure, shortened: as §2

KRAS-WT, sequence (P01116 with tags, fused parts or gaps isoform P01116-2): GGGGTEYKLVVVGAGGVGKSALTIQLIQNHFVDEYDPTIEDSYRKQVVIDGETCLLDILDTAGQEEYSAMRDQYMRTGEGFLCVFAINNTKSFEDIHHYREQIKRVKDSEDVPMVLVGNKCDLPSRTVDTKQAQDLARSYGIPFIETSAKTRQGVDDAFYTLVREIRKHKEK
KRAS-G12D, sequence (P01116 with tags, fused parts or gaps isoform P01116-2 G12D): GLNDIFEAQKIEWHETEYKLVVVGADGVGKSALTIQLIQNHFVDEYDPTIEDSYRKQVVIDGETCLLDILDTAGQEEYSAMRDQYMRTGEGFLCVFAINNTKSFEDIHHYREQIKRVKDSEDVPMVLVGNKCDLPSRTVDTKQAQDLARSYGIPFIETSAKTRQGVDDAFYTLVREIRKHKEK
KRAS-G13D, sequence (P01116 with tags, fused parts or gaps isoform P01116-2 G13D): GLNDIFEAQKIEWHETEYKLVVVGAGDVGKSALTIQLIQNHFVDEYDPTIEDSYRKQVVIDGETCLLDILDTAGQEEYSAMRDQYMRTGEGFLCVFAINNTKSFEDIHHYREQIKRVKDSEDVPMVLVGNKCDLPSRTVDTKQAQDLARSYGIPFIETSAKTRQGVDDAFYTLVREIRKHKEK
KRAS-G12V, sequence (P01116 with tags, fused parts or gaps isoform P01116-2 G12V): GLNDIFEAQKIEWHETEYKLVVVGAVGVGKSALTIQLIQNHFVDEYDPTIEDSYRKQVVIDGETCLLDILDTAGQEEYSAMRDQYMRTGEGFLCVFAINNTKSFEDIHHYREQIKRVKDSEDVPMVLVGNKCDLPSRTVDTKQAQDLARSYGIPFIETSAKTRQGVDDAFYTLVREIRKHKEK
KRAS-G12C (C51S/C80L/C118S), sequence (P01116 with tags, fused parts or gaps isoform P01116-2 G12C/C51S/C80L/C118S): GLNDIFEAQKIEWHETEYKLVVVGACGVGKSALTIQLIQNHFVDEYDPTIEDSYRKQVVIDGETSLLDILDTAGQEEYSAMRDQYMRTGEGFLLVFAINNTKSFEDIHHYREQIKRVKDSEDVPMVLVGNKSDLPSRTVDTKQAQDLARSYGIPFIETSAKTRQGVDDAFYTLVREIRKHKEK

Cc1cc2[nH]nc(C#N)c2c(-c2nccc3c4c(N5CCOC[C@@](C)(O)C5)nc(OC[C@@]56CCCN5C[C@H](F)C6)nc4n(C)c23)c1C(F)(F)F (single isomer, unassigned) [Ex-4]
IC50 [1]: 339 nM
IC50 [2]: 124 nM
IC50 [3]: 568 nM
IC50 [4]: 430 nM
IC50 [5]: 1640 nM
IC50 [6]: 536 nM

Cc1cc2[nH]nc(C)c2c(-c2nccc3c4c(N5CCOC[C@@](C)(O)C5)nc(OC[C@@]56CCCN5C[C@H](F)C6)nc4n(C)c23)c1C(F)F (single isomer, unassigned) [Ex-8]
IC50 [1]: 1500 nM
IC50 [2]: 1190 nM
IC50 [3]: 2250 nM
IC50 [4]: 2090 nM
IC50 [5]: 1430 nM
IC50 [6]: 1650 nM

Cc1cc2[nH]nc(C#N)c2c(-c2nccc3c4c(N5CCOC[C@@](C)(O)C5)nc(OC[C@@]56CCCN5C[C@H](F)C6)nc4n(C)c23)c1C(F)F (single isomer, unassigned) [Ex-9]
IC50 [1]: 616 nM
IC50 [2]: 566 nM
IC50 [3]: 1350 nM
IC50 [4]: 560 nM
IC50 [5]: 1690 nM
IC50 [6]: 575 nM

Cn1c2nc(OC[C@@]34CCCN3C[C@H](F)C4)nc(N3CCOC[C@@](C)(O)C3)c2c2ccnc(-c3c(C(F)F)c(Cl)cc4[nH]nc(C#N)c34)c21 (single isomer, unassigned) [Ex-12]
IC50 [1]: 2150 nM
IC50 [2]: 584 nM
IC50 [3]: 5930 nM
IC50 [4]: 2650 nM
IC50 [5]: 6060 nM
IC50 [6]: 2960 nM

Cc1n[nH]c2cc(Cl)c(C(F)F)c(-c3nccc4c5c(N6CCOC[C@@](C)(O)C6)nc(OC[C@@]67CCCN6C[C@H](F)C7)nc5n(C)c34)c12 (single isomer, unassigned) [Ex-13]
IC50 [1]: 3660 nM
IC50 [2]: 1480 nM
IC50 [3]: 2750 nM
IC50 [4]: 4860 nM
IC50 [5]: 4300 nM
IC50 [6]: 1660 nM

Cc1cc2[nH]ncc2c(-c2nccc3c4c(N5CCCC6(CC(=O)N6)C5)nc(OC[C@@]56CCCN5C[C@H](F)C6)nc4n(C)c23)c1C(F)(F)F (single isomer, unassigned) [Ex-21]
IC50 [1]: 59 nM
IC50 [2]: 25.3 nM
IC50 [3]: 455 nM
IC50 [5]: 1860 nM
IC50 [7]: 3260 nM
IC50 [6]: 34.4 nM

Cc1cc2[nH]ncc2c(-c2nccc3c4c(N5CC6CCC(F)(C5)N6)nc(OC[C@@]56CCCN5C[C@H](F)C6)nc4n(C)c23)c1C(F)(F)F (single isomer, unassigned) [Ex-22]
IC50 [1]: 2440 nM
IC50 [2]: 189 nM
IC50 [3]: 975 nM
IC50 [4]: 456 nM
IC50 [5]: 3510 nM
IC50 [6]: 409 nM

Cc1cc2[nH]ncc2c(-c2nccc3c4c(N5CCOCC(O)C5)nc(OC[C@@]56CCCN5C[C@H](F)C6)nc4n(C)c23)c1C(F)(F)F (single isomer, unassigned) [Ex-23]
IC50 [1]: 1430 nM
IC50 [2]: 190 nM
IC50 [3]: 1200 nM
IC50 [4]: 789 nM
IC50 [5]: 3060 nM
IC50 [6]: 657 nM

Cc1cc2c3c(N4CCOC[C@@](C)(O)C4)nc(OC[C@@]45CCCN4C[C@H](F)C5)nc3n(C)c2c(-c2c(C(F)(F)F)c(C)cc3[nH]ncc23)n1 (single isomer, unassigned) [Ex-28]
IC50 [1]: 629 nM
IC50 [2]: 275 nM
IC50 [3]: 973 nM
IC50 [4]: 541 nM
IC50 [5]: 2040 nM
IC50 [6]: 934 nM

Cc1nc2[nH]ncc2c(-c2nccc3c4c(N5CCOC[C@@](C)(O)C5)nc(OC[C@@]56CCCN5C[C@H](F)C6)nc4n(C)c23)c1C(F)(F)F [Ex-14, (6S)-4-(2-(((2R,7aS)-2-fluorotetrahydro-1H-pyrrolizin-7a(5H)-yl)methoxy)-9-methyl-8-(6-methyl-5-(trifluoromethyl)-1H-pyrazolo[3,4-b]pyridin-4-yl)-9H-pyrido[4′,3′:4,5]pyrrolo[2,3-d]pyrimidin-4-yl)-6-methyl-1,4-oxazepan-6-ol]
IC50 [1]: 276 nM
IC50 [2]: 233 nM
IC50 [3]: 681 nM
IC50 [4]: 543 nM
IC50 [5]: 561 nM
IC50 [6]: 404 nM

C#Cc1c(F)ccc2cc(N)nc(-c3nccc4c5c(N6CCOC[C@@](C)(O)C6)nc(OC[C@@]67CCCN6C[C@H](F)C7)nc5n(C)c34)c12 [Ex-17, (S)-4-(8-(3-amino-8-ethynyl-7-fluoroisoquinolin-1-yl)-2-(((2R,7aS)-2-fluorotetrahydro-1H-pyrrolizin-7a(5H)-yl)methoxy)-9-methyl-9H-pyrido[4′,3′:4,5]pyrrolo[2,3-d]pyrimidin-4-yl)-6-methyl-1,4-oxazepan-6-ol]
IC50 [1]: 1420 nM
IC50 [2]: 300 nM
IC50 [3]: 1810 nM
IC50 [4]: 592 nM
IC50 [5]: 3750 nM
IC50 [6]: 1020 nM

Cc1cc2[nH]ncc2c(-c2nccc3c4c(N5CCOC[C@@](C)(O)C5)nc(OC[C@]5(CN(C)C)CC5(F)F)nc4n(C)c23)c1C(F)(F)F [Ex-20, (6S)-4-(2-(((R)-1-((dimethylamino)methyl)-2,2-difluorocyclopropyl)methoxy)-9-methyl-8-(6-methyl-5-(trifluoromethyl)-1H-indazol-4-yl)-9H-pyrido[4′,3′:4,5]pyrrolo[2,3-d]pyrimidin-4-yl)-6-methyl-1,4-oxazepan-6-ol]
IC50 [1]: 37.9 nM
IC50 [8]: 539 nM
IC50 [9]: 150 nM
IC50 [3]: 125 nM
IC50 [5]: 80.6 nM
IC50 [6]: 62.9 nM

CCn1c2nc(OC[C@@]34CCCN3C[C@H](F)C4)nc(N3CCOC[C@@](C)(O)C3)c2c2ccnc(-c3c(C(F)(F)F)c(C)cc4[nH]ncc34)c21 [Ex-24, (6S)-4-(9-ethyl-2-(((2R,7aS)-2-fluorotetrahydro-1H-pyrrolizin-7a(5H)-yl)methoxy)-8-(6-methyl-5-(trifluoromethyl)-1H-indazol-4-yl)-9H-pyrido[4′,3′:4,5]pyrrolo[2,3-d]pyrimidin-4-yl)-6-methyl-1,4-oxazepan-6-ol]
IC50 [1]: 705 nM
IC50 [2]: 224 nM
IC50 [3]: 929 nM
IC50 [4]: 1020 nM
IC50 [5]: 749 nM
IC50 [6]: 492 nM
